Assay results taken from DBAASP.
In brackets after ≈: the same amount, converted by molar mass.

Legend:
Assay in all cases: ≥ marks a high value that may be exact or a test limit, other limits are often not marked, values filed in µg/mL are converted to µM
Candida albicans = tested on: Candida albicans
[1] = tested on: Salmonella enterica serovar Typhimurium
[2] = tested on: Staphylococcus epidermidis
[3] = tested on: Enterococcus faecalis ATCC 29212
[4] = tested on: Staphylococcus aureus ATCC 25923
[5] = tested on: Pseudomonas aeruginosa H103
Escherichia coli UB1005 = tested on: Escherichia coli UB1005
[6] = tested on: Bacillus subtilis ATCC 6633
Shigella dysenteriae = tested on: Shigella dysenteriae
[7] = tested on: Staphylococcus aureus ATCC 2592
[8] = tested on: Candida albicans ATCC 2002
Pseudomonas aeruginosa = tested on: Pseudomonas aeruginosa
Proteus mirabilis = tested on: Proteus mirabilis
Micrococcus luteus = tested on: Micrococcus luteus
Bacillus subtilis = tested on: Bacillus subtilis
Staphylococcus aureus = tested on: Staphylococcus aureus
Escherichia coli = tested on: Escherichia coli
Klebsiella pneumoniae = tested on: Klebsiella pneumoniae
Salmonella typhimurium = tested on: Salmonella typhimurium
[9] = tested on: Staphylococcus aureus NCTC 8325
[10] = tested on: Candida albicans ATCC 90028
[11] = tested on: Micrococcus luteus ATCC 9341
Streptococcus mutans = tested on: Streptococcus mutans
Escherichia coli BW25113 = tested on: Escherichia coli BW25113

CC[C@H](C)[C@H](NC(=O)[C@H](Cc1ccccc1)NC(=O)[C@@H](N)Cc1ccccc1)C(=O)N[C@@H](Cc1ccc(O)cc1)C(=O)N[C@H](C(=O)N[C@@H](Cc1c[nH]c2ccccc12)C(=O)N[C@@H](CCCN=C(N)N)C(=O)N[C@@H](CCCN=C(N)N)C(=O)N[C@@H](CCCN=C(N)N)C(=O)O)C(C)C [FFIYVWRRR]
MIC (Candida albicans): 7.6 µM (≈ 10.2 µg/mL) | MIC [1]: 7.6 µM (≈ 10.2 µg/mL) | MIC [2]: 1 µM (≈ 1.34 µg/mL) | MIC [3]: 3.8 µM (≈ 5.1 µg/mL) | MIC [4]: 1.9 µM (≈ 2.55 µg/mL) | MIC [5]: 15.3 µM (≈ 20.5 µg/mL) | MIC (Escherichia coli UB1005): 3.8 µM (≈ 5.1 µg/mL)

CC[C@H](C)[C@H](NC(=O)[C@H](CCCCN)NC(=O)[C@@H]1CCCN1C(=O)[C@H](CC(C)C)NC(=O)[C@H](Cc1ccccc1)NC(=O)[C@H](CC(C)C)NC(=O)[C@@H]1CCCN1C(=O)[C@H](CC(C)C)NC(=O)[C@@H](N)Cc1ccccc1)C(=O)N[C@H](C(=O)N[C@H]1CSSC[C@@H](C(=O)O)NC(=O)[C@H](CCCCN)NC(=O)[C@H](CCCCN)NC(=O)[C@H]([C@@H](C)O)NC(=O)[C@H]([C@@H](C)CC)NC(=O)[C@H](C(C)C)NC1=O)[C@@H](C)CC [FLPLFLPKIICVITKKC]
MIC [6]: 4.75 µM (≈ 9.37 µg/mL) | MIC (Shigella dysenteriae): 17.7 µM (≈ 35 µg/mL) | MIC [7]: 2.38 µM (≈ 4.7 µg/mL) | MIC [8]: 9.49 µM (≈ 18.7 µg/mL)

CC(C)C[C@H](NC(=O)[C@@H](NC(=O)[C@H](CCCCN)NC(=O)[C@H](CO)NC(=O)[C@H](C)NC(=O)[C@@H](NC(=O)[C@H](CCCCN)NC(=O)[C@H](Cc1ccccc1)NC(=O)[C@H](CC(C)C)NC(=O)[C@H](C)NC(=O)CN)C(C)C)C(C)C)C(=O)O [GALFKVASKVL]
MIC [2]: ≥ 177 µM | MIC (Pseudomonas aeruginosa): > 177 µM | MIC (Proteus mirabilis): ≥ 177 µM | MIC (Micrococcus luteus): ≥ 177 µM | MIC (Bacillus subtilis): ≥ 177 µM | MIC (Staphylococcus aureus): 177 µM (≈ 200 µg/mL) | MIC (Shigella dysenteriae): ≥ 177 µM | MIC (Escherichia coli): 177 µM (≈ 200 µg/mL) | MIC (Klebsiella pneumoniae): > 177 µM | MIC (Salmonella typhimurium): ≥ 177 µM

CC[C@H](C)[C@H](NC(=O)CNC(=O)[C@H](CO)NC(=O)[C@H](CC(C)C)NC(=O)[C@H](CC(C)C)NC(=O)CN)C(=O)N[C@@H](CC(C)C)C(=O)NCC(=O)N[C@@H](C)C(=O)NCC(=O)N[C@@H](CCCCN)C(=O)N[C@@H](CC(N)=O)C(=O)N[C@H](C(=O)N[C@H](C(=O)N[C@H]1CSSC[C@@H](C(=O)O)NC(=O)[C@H](CC(C)C)NC(=O)CNC(=O)[C@H](CO)NC(=O)[C@H](CC(C)C)NC(=O)CNC1=O)C(C)C)[C@@H](C)CC [GLLSGILGAGKNIVCGLSGLC]
MIC [9]: ≥ 100 µM | MIC (Shigella dysenteriae): 0.643 µM (≈ 1.25 µg/mL) | MIC [7]: 1.29 µM (≈ 2.5 µg/mL) | MIC [10]: ≥ 100 µM | MIC [8]: 3.86 µM (≈ 7.49 µg/mL)

CC[C@H](C)[C@H](N)C(=O)N[C@@H](CC(C)C)C(=O)N1CCC[C@H]1C(=O)N[C@@H](CCC(=O)O)C(=O)N[C@@H](CCCCN)C(=O)N[C@@H](CCC(=O)O)C(=O)N1CCC[C@H]1C(=O)N[C@@H](CCC(=O)O)C(=O)N[C@@H](CCC(=O)O)C(=O)N1CCC[C@H]1C(=O)N[C@@H](CCC(=O)O)C(=O)N[C@@H](CCCN=C(N)N)C(=O)N[C@@H](CCCN=C(N)N)C(N)=O [ILPEKEPEEPERR]
MIC [11]: ≥ 100 µM

CC[C@H](C)[C@H](N)C(=O)N[C@@H](CC(C)C)C(=O)N1CCC[C@H]1C(=O)N[C@@H](CCCCN)C(=O)N[C@@H](CCCCN)C(=O)N[C@@H](CCCCN)C(=O)N1CCC[C@H]1C(=O)N[C@@H](CCCCN)C(=O)N[C@@H](CCCCN)C(=O)N1CCC[C@H]1C(=O)N[C@@H](CCCCN)C(=O)N[C@@H](CCCN=C(N)N)C(=O)N[C@@H](CCCN=C(N)N)C(N)=O [ILPKKKPKKPKRR]
MIC [11]: ≥ 100 µM

CC[C@H](C)[C@H](NC(=O)[C@H](CCC(=O)O)NC(=O)[C@H](CCCCN)NC(=O)[C@H](CC(C)C)NC(=O)[C@H](CCC(N)=O)NC(=O)[C@H](CCC(=O)O)NC(=O)[C@@H](NC(=O)[C@H](CC(C)C)NC(=O)[C@@H](N)CCCCN)C(C)C)C(=O)N[C@@H](Cc1ccccc1)C(=O)N[C@@H](CCCN=C(N)N)C(=O)O [KLVEQLKEIFR]
MIC (Streptococcus mutans): ≥ 178 µM

CC[C@H](C)[C@H](NC(=O)[C@H](Cc1c[nH]c2ccccc12)NC(=O)[C@H](Cc1c[nH]c2ccccc12)NC(=O)[C@H](CCCCN)NC(=O)[C@H](Cc1c[nH]c2ccccc12)NC(=O)[C@H](CCCN=C(N)N)NC(=O)[C@H](CCCN=C(N)N)NC(=O)[C@H](CCCCN)NC(=O)[C@@H](N)CC(C)C)C(=O)O [LKRRWKWWI]
MIC (Candida albicans): 19.1 µM (≈ 26.2 µg/mL) | MIC [1]: 9.6 µM (≈ 13.2 µg/mL) | MIC [2]: 1.2 µM (≈ 1.65 µg/mL) | MIC [3]: 9.6 µM (≈ 13.2 µg/mL) | MIC [4]: 2.4 µM (≈ 3.29 µg/mL) | MIC [5]: 19.1 µM (≈ 26.2 µg/mL) | MIC (Escherichia coli UB1005): 2.4 µM (≈ 3.29 µg/mL)

CC[C@H](C)[C@H](NC(=O)[C@@H]1CCCN1C(=O)[C@H](CCCN=C(N)N)NC(=O)[C@H](CCCN=C(N)N)NC(=O)[C@H](Cc1ccccc1)NC(=O)[C@@H](N)CCCN=C(N)N)C(=O)N[C@@H](CCCN=C(N)N)C(=O)N[C@@H](CCCN=C(N)N)C(=O)N[C@@H](CCCN=C(N)N)C(=O)N1CCC[C@H]1C(=O)N[C@H](C(=O)N[C@@H](CCCN=C(N)N)C(=O)N1CCC[C@H]1C(=O)N1CCC[C@H]1C(=O)N[C@@H](Cc1ccccc1)C(=O)N[C@@H](Cc1ccc(O)cc1)C(=O)N1CCC[C@H]1C(=O)O)[C@@H](C)CC [RFRRPIRRRPIRPPFYP]
MIC (Escherichia coli BW25113): 8 µM (≈ 18.2 µg/mL)

CC(C)C[C@H](NC(=O)[C@H](Cc1ccccc1)NC(=O)[C@H](CCCCN)NC(=O)[C@H](Cc1c[nH]c2ccccc12)NC(=O)[C@H](Cc1c[nH]c2ccccc12)NC(=O)[C@H](CCCN=C(N)N)NC(=O)[C@H](CCCCN)NC(=O)[C@H](CC(C)C)NC(=O)[C@@H](N)CCCN=C(N)N)C(=O)O [RLKRWWKFL]
MIC (Candida albicans): 9.8 µM (≈ 13.1 µg/mL) | MIC [1]: 4.9 µM (≈ 6.53 µg/mL) | MIC [2]: 1.2 µM (≈ 1.6 µg/mL) | MIC [3]: 9.8 µM (≈ 13.1 µg/mL) | MIC [4]: 2.4 µM (≈ 3.2 µg/mL) | MIC [5]: 9.8 µM (≈ 13.1 µg/mL) | MIC (Escherichia coli UB1005): 1.2 µM (≈ 1.6 µg/mL)

NC(N)=NCCC[C@H](NC(=O)[C@H](Cc1c[nH]c2ccccc12)NC(=O)[C@H](Cc1c[nH]c2ccccc12)NC(=O)[C@H](Cc1c[nH]c2ccccc12)NC(=O)[C@H](CCCN=C(N)N)NC(=O)[C@H](CCCN=C(N)N)NC(=O)[C@@H](N)CCCN=C(N)N)C(=O)O [RRRWWWR]
MIC (Streptococcus mutans): 26.6 µM (≈ 32 µg/mL)

NCCCC[C@H](NC(=O)[C@H](CCCN=C(N)N)NC(=O)[C@H](CCCN=C(N)N)NC(=O)[C@H](CCCCN)NC(=O)[C@H](Cc1c[nH]c2ccccc12)NC(=O)[C@H](CCCN=C(N)N)NC(=O)[C@@H](N)CCCN=C(N)N)C(=O)O [RRWKRRK]
MIC (Streptococcus mutans): ≥ 461 µM

NC(=O)[C@H](Cc1cnc[nH]1)NC(=O)[C@H](Cc1ccccc1)NC(=O)[C@H](Cc1ccccc1)NC(=O)[C@H](Cc1cnc[nH]1)NC(=O)[C@H](Cc1cnc[nH]1)NC(=O)[C@H](Cc1ccccc1)NC(=O)[C@H](Cc1cnc[nH]1)NC(=O)[C@H](CCCN=C(N)N)NC(=O)[C@H](Cc1c[nH]c2ccccc12)NC(=O)[C@H](Cc1c[nH]c2ccccc12)NC(=O)[C@H](CCCN=C(N)N)NC(=O)[C@H](CCCN=C(N)N)NC(=O)[C@H](Cc1c[nH]c2ccccc12)NC(=O)[C@@H](N)CCCN=C(N)N [RWRRWWRHFHHFFH]
MIC (Streptococcus mutans): 3.65 µM (≈ 8 µg/mL)

CC[C@H](C)[C@H](NC(=O)[C@H](Cc1c[nH]c2ccccc12)NC(=O)[C@H](CCCCN)NC(=O)[C@H](CCCCN)NC(=O)[C@H](CC(C)C)NC(=O)[C@H](Cc1c[nH]c2ccccc12)NC(=O)[C@H](CCCCN)NC(=O)[C@@H](N)Cc1c[nH]c2ccccc12)C(=O)N[C@@H](CCCCN)C(=O)O [WKWLKKWIK]
MIC (Candida albicans): 5.8 µM (≈ 7.63 µg/mL) | MIC [1]: 11.5 µM (≈ 15.1 µg/mL) | MIC [2]: 0.458 µM (≈ 0.603 µg/mL) | MIC [3]: 11.5 µM (≈ 15.1 µg/mL) | MIC [4]: 0.7 µM (≈ 0.921 µg/mL) | MIC [5]: 2.9 µM (≈ 3.82 µg/mL) | MIC (Escherichia coli UB1005): 5.8 µM (≈ 7.63 µg/mL)

NCCCC[C@H](NC(=O)[C@@H](N)Cc1c[nH]c2ccccc12)C(=O)N[C@@H](Cc1c[nH]c2ccccc12)C(=O)N1CCC[C@H]1C(=O)N[C@@H](Cc1c[nH]c2ccccc12)C(=O)N[C@@H](Cc1c[nH]c2ccccc12)C(=O)N1CCC[C@H]1C(=O)N[C@@H](Cc1c[nH]c2ccccc12)C(=O)N[C@@H](CCCN=C(N)N)C(=O)N[C@@H](CCCN=C(N)N)C(N)=O [WKWPWWPWRR]
MIC [11]: 0.4 µM (≈ 0.633 µg/mL)
